“And” between values parts separate entries of the source, which are not always exact repeats. Equal values may be shown once.
Assays:
[1] = test system: patients with PH-HFpEF; assay: HELP Study (TNX-LVO-04), weekly I.V. levosimendan for 6 weeks; type: in vivo, human; parameters: HELP (WK 6) 6MWT: unit not given here
Excerpt: The initial HELP Study is described in PCT International Application Publication No. WO 2021/126884 and Burkhoff, et al. (2021) “Levosimendan improves hemodynamics and exercise tolerance in PH-HFpEF: results of the randomized placebo-controlled HELP trial,” the entire contents of each of which are incorporated by reference. […] Among the goals of the extension study was to determine the dose of oral levosimendan that could maintain the efficacy of the weekly I.V. infusions of levosimendan.
PH-HFpEF is a progressive, fatal disease for which there are no approved therapies. All patients that the 6-week parent TNX-LVO-04 study (also referred to as the initial Help Study) underwent assessments of safety and efficacy in a double-blind randomized protocol. […] For these reasons, all participating patients were allowed to enter an open-label extension study (also referred to as TNX-LVO-05), to provide ongoing levosimendan therapy for two additional years. […]

[2] = test system: subjects with pulmonary hypertension with heart failure and preserved ejection fraction; assay: TNX-LVO-05 safety review: treatment emergent adverse events; type: in vivo, human
Excerpt: This is the third safety review for Study Protocol No. TNX-LVO-05. This review a) summarizes treatment emergent adverse events (TEAEs), treatment emergent serious adverse events (TESAEs), discontinuations due to TEAEs, and b) provides an overall assessment of safety data.
As of 4 Nov. 2020, 36 subjects have been enrolled in this open-label study with levosimendan and 18 (−5; this number presents change versus previous Safety Review) are still active. Seven subjects (+3) withdrew due to AE, and eight (+2) subjects withdrew consent. One subject was withdrawn by investigator decision.

[3] = individual patients, Active arm of HELP Study, weekly I.V. levosimendan, week 6

Which results are given for `C[C@@H]1CC(=O)NN=C1c1ccc(NN=C(C#N)C#N)cc1` [levosimendan]?
HELP (WK 6) 6MWT [1, 3]: 311 and 397 and 270 and 218 and 232 and 401 and 196 and 482; HELP (WK 6) HR [1, 3]: 72 and 63 (2×) and 86 and 71 and 67 and 75 (2×); average improvement of 6-minute walk distance ([1]; levosimendan alone, PH-HFpEF patients): approximately 29 m; effect on pulmonary vascular resistance ([1]; particularly upon chronic administration): did not decrease; TEAE arthralgia ([2]; of 36 enrolled): 3 subjects; TEAE asthenia ([2]; of 36 enrolled): 3 subjects; TEAE back pain ([2]; of 36 enrolled): 3 subjects; TEAE cardiac failure ([2]; of 36 enrolled): 6 subjects; TEAE dermatitis ([2]; of 36 enrolled): 3 subjects; TEAE device infusion issues ([2]; of 36 enrolled): 3 subjects; TEAE dizziness ([2]; of 36 enrolled): 8 subjects; TEAE dyspnea ([2]; of 36 enrolled): 8 subjects; TEAE fluid overload ([2]; of 36 enrolled): 3 subjects; TEAE gout ([2]; of 36 enrolled): 3 subjects; TEAE headache ([2]; of 36 enrolled): 5 subjects; TEAE hemoptysis ([2]; of 36 enrolled): 3 subjects; TEAE hypokalemia ([2]; of 36 enrolled): 7 subjects; TEAE palpitations ([2]; of 36 enrolled): 4 subjects; TEAE pneumonia ([2]; of 36 enrolled): 3 subjects; TEAE upper respiratory tract infection ([2]; of 36 enrolled): 3 subjects; TEAE urinary tract infection ([2]; of 36 enrolled): 3 subjects; TEAE ventricular extrasystoles ([2]; of 36 enrolled): 3 subjects; TEAE weight increased ([2]; of 36 enrolled): 3 subjects; drug-related TEAE device infusion issue ([2]; of 36 enrolled): 3 subjects; drug-related TEAE headache ([2]; of 36 enrolled): 2 subjects; drug-related TEAE palpitations ([2]; of 36 enrolled): 2 subjects; drug-related TEAE urticaria ([2]; of 36 enrolled): 2 subjects; drug-related TEAE ventricular extrasystoles ([2]; of 36 enrolled): 2 subjects; subjects permanently discontinued study drug due to a TEAE ([2]; of 36 enrolled): 5 subjects; subjects with TEAEs, SOC General disorders and administration site conditions ([2]; of 36 enrolled): 15 subjects; subjects with TEAEs, SOC Nervous system disorders ([2]; of 36 enrolled): 15 subjects; TESAE asthenia ([2]; of 36 enrolled (5.6%)): 2 subjects; TESAE cardiac failure congestive ([2]; of 36 enrolled (5.6%)): 2 subjects; TESAE pneumonia ([2]; of 36 enrolled (8.3%)): 3 subjects; TESAEs, SOC Metabolism and nutrition disorders ([2]; of 36 enrolled (8.3%)): 4 subjects; related TEAEs, SOC Nervous system disorders ([2]; of 36 enrolled (8.3%)): 3 subjects; related TEAEs, SOC Respiratory, thoracic and mediastinal disorders ([2]; of 36 enrolled (8.3%)): 3 subjects; related TEAEs, SOC Skin and subcutaneous tissue disorders ([2]; of 36 enrolled (8.3%)): 3 subjects; related TEAEs, SOC cardiac disorders ([2]; of 36 enrolled (8.3%)): 5 subjects; TESAE cardiac failure ([2]; of 36 enrolled (11.1%)): 4 subjects; related TEAEs, SOC Product issues ([2]; of 36 enrolled (11.4%)): 4 subjects; TESAEs, SOC Infections and Infestations ([2]; of 36 enrolled (22.2%)): 8 subjects; TESAEs, SOC cardiac disorders ([2]; of 36 enrolled (22.2%)): 8 subjects; subjects with TEAE severity moderate ([2]; of 36 enrolled (25.0%)): 9 subjects; subjects with TEAE severity mild ([2]; of 36 enrolled (27.8%)): 10 subjects; subjects with TEAE severity severe ([2]; of 36 enrolled (36.1%)): 13 subjects; subjects with TEAEs considered related to the study drug ([2]; of 36 enrolled (41.7%)): 15 subjects; subjects with TEAEs, SOC Cardiac disorders ([2]; of 36 enrolled (47.2%)): 17 subjects; subjects with TEAEs, SOC Infections and Infestations ([2]; of 36 enrolled (47.2%)): 17 subjects; subjects with serious TEAEs (TESAEs) ([2]; of 36 enrolled (55.6%)): 20 subjects; subjects with TEAEs ([2]; of 36 enrolled (88.9%)): 32 subjects; overall safety assessment ([2]; third safety review, as of 4 Nov. 2020): no safety trends or signals; serious TEAEs considered related ([2]; two of 36 enrolled): 5.6%

Reference: patent US20250064799A1, “ORAL FORMULATIONS OF LEVOSIMENDAN FOR TREATING PULMONARY HYPERTENSION WITH HEART FAILURE WITH PRESERVED EJECTION FRACTION” (Tenax Therapeutics, Inc., priority 2021, published 2025)
